# Experimental data taken from ChEMBL document CHEMBL3046470, “Design, synthesis, anti-inflammatory, analgesic screening, and molecular docking of some novel 2-pyridyl (3H)-quinazolin-4-one derivatives” (2013).
# Calls of active or inactive are those of the source. No cut-off for these calls is given here.
# How the values were obtained:
# [1] = system: Rattus norvegicus; experiment: Anti-inflammatory activity against Rattus norvegicus Albino Sprague-Dawley (rat) assessed as inhibition of carrageenan-induced paw edema at 50 mg/kg, ip administered 30 min prior to carrageenan injection measured after 1 hr by plethysmometer analysis; type: functional; settings: for inhibition in vivo at 50 mg/kg: route intraperitoneal
# [2] = system: Rattus norvegicus; experiment: Anti-inflammatory activity against Rattus norvegicus Albino Sprague-Dawley (rat) assessed as inhibition of carrageenan-induced paw edema at 50 mg/kg, ip administered 30 min prior to carrageenan injection measured after 2 hr by plethysmometer analysis; type: functional; settings: for inhibition in vivo at 50 mg/kg: route intraperitoneal
# [3] = system: Rattus norvegicus; experiment: Anti-inflammatory activity against Rattus norvegicus albino Sprague-Dawley (rat) assessed as inhibition of carrageenan-induced paw edema at 50 mg/kg, ip administered 30 min prior to carrageenan injection measured after 3 hr by plethysmometer analysis; type: functional, organism-based; parameters: dose 50 mg/kg
# [4] = system: Rattus norvegicus; experiment: Anti-inflammatory activity against Rattus norvegicus Albino Sprague-Dawley (rat) assessed as inhibition of carrageenan-induced paw edema at 50 mg/kg, ip administered 30 min prior to carrageenan injection measured after 4 hr by plethysmometer analysis; type: functional, organism-based; parameters: dose 50 mg/kg
# [5] = system: Mus musculus; experiment: Analgesic activity in Mus musculus Swiss (mouse) assessed as inhibition of acetic acid-induced writhing administered 1 hr prior to acetic acid injection measured after 5 min for 30 min; type: functional; settings: read-out: PD50
# [6] = system: Mus musculus; experiment: Analgesic activity in Mus musculus Swiss (mouse) assessed as inhibition of acetic acid-induced writhing at 50 mg/kg, sc administered 1 hr prior to acetic acid injection measured after 5 min for 30 min; type: functional; settings: route subcutaneous
# [7] = system: Rattus norvegicus; experiment: Anti-inflammatory activity against Rattus norvegicus Albino Sprague-Dawley (rat) assessed as inhibition of carrageenan-induced paw edema at 18 mg/kg, ip administered 30 min prior to carrageenan injection measured after 1 hr by plethysmometer analysis; type: functional; settings: route intraperitoneal
# [8] = system: Rattus norvegicus; experiment: Anti-inflammatory activity against Rattus norvegicus Albino Sprague-Dawley (rat) assessed as inhibition of carrageenan-induced paw edema administered 30 min prior to carrageenan injection measured after 4 hr by plethysmometer analysis; type: functional
Compound,inhibition in vivo at 50 mg/kg [1],inhibition [2],inhibition [3],inhibition [4],inhibition [1],inhibition in vivo at 50 mg/kg [2],ED50 [5],inhibition in vivo at 50 mg/kg [6],inhibition in vivo at 18 mg/kg [7],ED50 [8]
COc1ccc(C2CC(c3ccc(-n4c(-c5ccncc5)nc5ccc(Br)cc5c4=O)cc3)=NN2C(C)=O)cc1 (centres undefined),64.5%,Active,Active,Active,,,,,,
O=C(/C=C/c1ccc(Cl)cc1)c1ccc(-n2c(-c3ccncc3)nc3ccc(Br)cc3c2=O)cc1,73.8%,Active,Active,Active,,,,,,
O=c1c2cc(Br)ccc2nc(-c2ccncc2)n1-c1ccc(-c2csc(O)n2)cc1,,,Active,Active,Active,67.3%,15 mg/kg,75.7%,,
COc1ccc2c(c1)c(CC(=O)O)c(C)n2C(=O)c1ccc(Cl)cc1 [INDOMETHACIN],,,,,,,,,62.9%,
O=C1N=C(c2ccc(-n3c(-c4ccncc4)nc4ccc(Br)cc4c3=O)cc2)CC(c2ccc(Cl)cc2)N1 (centres undefined),62.3%,Active,Active,Active,,,,75.4%,,
Nc1nc(-c2ccc(-n3c(-c4ccncc4)nc4ccc(Br)cc4c3=O)cc2)cs1,,,Active,Active,Active,62.8%,,,,
O=C(/C=C/c1ccc([N+](=O)[O-])cc1)c1ccc(-n2c(-c3ccncc3)nc3ccc(Br)cc3c2=O)cc1,,,Active,Active,Active,70.5%,,,,22.3 mg/kg
